Values joined by “and” are separate entries in the source; they are usually repeats but may differ in a detail not shown here. Equal entries are not always repeated.
Assay: Body weight, biochemical and haematological parameters in DHT-induced AGA mice (0.5% testosterone then topical treatment)
Assay type: in vivo, C57BL/6J mice
Conditions: for Weight of C57BL/6J mice: individual mice; for LYMPH: unit assumed
Method: The experiments were performed on C57BL/6 J and Athymic nude mice (NU/J Foxn1^nu) of 6–7 weeks of age obtained from Animal House Facility, CSIR-Indian Institute of Integrative Medicine (IIIM), Jammu, India. […] The animals were provided with ad libitum feed (standard pellet diet) and autoclaved RO water throughout the study. The body weight of mice was measured after seven days before treatment.
C57BL/6 J mice (male) were obtained from CSIR-IIIM Animal House at 7 weeks of age. We used a DHT-induced AGA mice model for this study. […] At the end of the experiment, skin samples were collected and preserved in 10% neutral buffered formalin for tissue sectioning and staining using haematoxylin and eosin (H&E). The histopathological examinations were performed under the 10× and 40× objectives of light microscope (Magnus, Mx21i).
Every two weeks during the experimental period, mice were anesthetized, and the blood samples were collected into tubes containing heparin sodium to detect the total and differential white blood cells, haemoglobin, red blood cell, platelet count, mean corpuscular haemoglobin, mean corpuscular volume, red blood cell volume, mean platelet volume, and analyzed using an automated haematology analyzer (Model: XT1800i; Make: Sysmex).
Every two weeks during the experimental period, mice and rats were anesthetized, and blood samples were collected into non-heparinized tubes and then centrifuged at 1000 rpm at 4 °C for 10 min to obtain the serum. The biochemical parameters, including total protein, aspartate aminotransferase, alanine aminotransferase, total protein, albumin, total bilirubin, direct bilirubin, glucose, total cholesterol, triglyceride, low-density lipoprotein, high-density lipoprotein, creatinine, and uric acid, were measured using an automatic biochemical analyzer (Model: EM360; Make: Erba Mannheim).

Compound: Fc1ccc(-c2cnc3[nH]cc(-c4ccnc(NC5CC5)n4)c3c2)cc1 [MJ04]
- Weight of C57BL/6J mice (0.016 mg/Kg, DAY 1, in g (unit assumed)): 27.2 and 23.8 and 24.6 and 24.7 and 25.6 and 25.7 and 25.8
- Weight of C57BL/6J mice (0.016 mg/Kg, DAY 7): 28.1 and 25.1 and 26.1 (2×) and 26.9 and 27.1 and 27.3
- Weight of C57BL/6J mice (0.016 mg/Kg, DAY 14, in g (unit assumed)): 29.3 and 26.4 and 27.3 and 27.4 and 28.1 and 28.4 and 28.7
- Weight of C57BL/6J mice (0.016 mg/Kg, DAY 21, in g (unit assumed)): 27.6 and 28.7 and 28.9 and 29.7 and 30.1 and 30.4
- Weight of C57BL/6J mice (0.016 mg/Kg, DAY 28): 30.3 and 30.4 (2×) and 31.6 and 31.7
- Weight of C57BL/6J mice (0.04 mg/Kg, DAY 1): 24.2 and 24.6 and 25.6 (2×) and 25.7 and 25.8 and 26.3 and 27.4
- Weight of C57BL/6J mice (0.04 mg/Kg, DAY 7, in g (unit assumed)): 26.1 and 26.3 and 26.4 and 26.7 and 26.9 and 27.1 and 27.2 and 28.7
- Weight of C57BL/6J mice (0.04 mg/Kg, DAY 14): 28.1 and 28.3 (2×) and 28.5 and 28.6 and 28.7 and 29.6
- Weight of C57BL/6J mice (0.04 mg/Kg, DAY 21): 29.4 and 29.7 and 29.8 and 30.1 and 30.4 (2×)
- Weight of C57BL/6J mice (0.04 mg/Kg, DAY 28): 30.3 and 31.2 (2×) and 31.3 and 31.5
- Weight of C57BL/6J mice (0.08 mg/Kg, DAY 1): 24.8 and 25.4 (2×) and 26.4 (2×) and 24.2 and 25.6 and 25.9
- Weight of C57BL/6J mice (0.08 mg/Kg, DAY 7): 26.7 (3×) and 25.5 and 27.3 and 27.5 and 28.37 and 25.7
- Weight of C57BL/6J mice (0.08 mg/Kg, DAY 14): 27.6 and 28.1 (2×) and 28.4 and 27.1 and 29.3 and 27.4
- Weight of C57BL/6J mice (0.08 mg/Kg, DAY 21): 29.4 (2×) and 29.7 and 30.1 and 30.7 and 28.6
- Weight of C57BL/6J mice (0.08 mg/Kg, DAY 28): 30.3 and 31.2 and 31.3 (2×) and 30.2
- ALP (Day 21, 0.016 mg/Kg): 99 U/L
- ALT/SGPT (Day 21, 0.016 mg/Kg): 86 U/L
- AST/SGOT (Day 21, 0.016 mg/Kg): 143 U/L
- Cholesterol (Day 21, 0.016 mg/Kg): 154 mg/dL
- Creatine (Day 21, 0.016 mg/Kg): 0.72 mg/dL
- HCT (Day 21, 0.016 mg/Kg): 48%
- HDL (Day 21, 0.016 mg/Kg): 112 mg/dL
- HGB (Day 21, 0.016 mg/Kg): 14 g/dL
- LDL (Day 21, 0.016 mg/Kg): 103 mg/dL
- MCHC (Day 21, 0.016 mg/Kg): 29 g/dL
- MCV (Day 21, 0.016 mg/Kg): 50 fL
- NEUT (Day 21, 0.016 mg/Kg): 25.7%
- PLT (Day 21, 0.016 mg/Kg): 1105 103/μl
- RBC (Day 21, 0.016 mg/Kg): 9.7 1012/l
- Total protein (Day 21, 0.016 mg/Kg): 5.2 g/dL
- Triglyceride (Day 21, 0.016 mg/Kg): 114 mg/dL
- Urea (Day 21, 0.016 mg/Kg): 55 mg/dL
- WBC (Day 21, 0.016 mg/Kg): 6.5 103/μl
- LYMPH (Day 21, 0.016 mg/Kg): 73.3%
- ALP (Day 21, 0.04 mg/Kg): 121 U/L
- ALT/SGPT (Day 21, 0.04 mg/Kg): 74 U/L
- AST/SGOT (Day 21, 0.04 mg/Kg): 148 U/L
- Cholesterol (Day 21, 0.04 mg/Kg): 138 mg/dL
- Creatine (Day 21, 0.04 mg/Kg): 0.69 mg/dL
- HCT (Day 21, 0.04 mg/Kg): 46%
- HDL (Day 21, 0.04 mg/Kg): 111 mg/dL
- HGB (Day 21, 0.04 mg/Kg): 13 g/dL
- LDL (Day 21, 0.04 mg/Kg): 101 mg/dL
- MCHC (Day 21, 0.04 mg/Kg): 29 g/dL
- MCV (Day 21, 0.04 mg/Kg): 50 fL
- NEUT (Day 21, 0.04 mg/Kg): 39.4%
- PLT (Day 21, 0.04 mg/Kg): 899 103/μl
- RBC (Day 21, 0.04 mg/Kg): 9.0 1012/l
- Total protein (Day 21, 0.04 mg/Kg): 4.9 g/dL
- Triglyceride (Day 21, 0.04 mg/Kg): 127 mg/dL
- Urea (Day 21, 0.04 mg/Kg): 49 mg/dL
- WBC (Day 21, 0.04 mg/Kg): 3.0 103/μl
- LYMPH (Day 21, 0.04 mg/Kg): 60.3%
- ALP (Day 21, 0.08 mg/Kg): 111 U/L
- ALT/SGPT (Day 21, 0.08 mg/Kg): 58 U/L
- AST/SGOT (Day 21, 0.08 mg/Kg): 114 U/L
- Cholesterol (Day 21, 0.08 mg/Kg): 184 mg/dL
- Creatine (Day 21, 0.08 mg/Kg): 0.49 mg/dL
- HCT (Day 21, 0.08 mg/Kg): 36%
- HDL (Day 21, 0.08 mg/Kg): 105 mg/dL
- HGB (Day 21, 0.08 mg/Kg): 10 g/dL
- LDL (Day 21, 0.08 mg/Kg): 102 mg/dL
- MCHC (Day 21, 0.08 mg/Kg): 28 g/dL
- MCV (Day 21, 0.08 mg/Kg): 50 fL
- NEUT (Day 21, 0.08 mg/Kg): 32.4%
- PLT (Day 21, 0.08 mg/Kg): 424 103/μl
- RBC (Day 21, 0.08 mg/Kg): 6.9 1012/l
- Total protein (Day 21, 0.08 mg/Kg): 5.2 g/dL
- Triglyceride (Day 21, 0.08 mg/Kg): 108 mg/dL
- Urea (Day 21, 0.08 mg/Kg): 71 mg/dL
- WBC (Day 21, 0.08 mg/Kg): 3.3 103/μl
- LYMPH (Day 21, 0.08 mg/Kg): 63%
- ALP (Day 28, 0.016 mg/Kg): 193 U/L
- ALT/SGPT (Day 28, 0.016 mg/Kg): 85 U/L
- AST/SGOT (Day 28, 0.016 mg/Kg): 75 U/L
- Cholesterol (Day 28, 0.016 mg/Kg): 194 mg/dL
- Creatine (Day 28, 0.016 mg/Kg): 0.20 mg/dL
- HCT (Day 28, 0.016 mg/Kg): 46.0%
- HDL (Day 28, 0.016 mg/Kg): 94 mg/dL
- HGB (Day 28, 0.016 mg/Kg): 14 g/dL
- LDL (Day 28, 0.016 mg/Kg): 109 mg/dL
- MCHC (Day 28, 0.016 mg/Kg): 30.0 g/dL
- MCV (Day 28, 0.016 mg/Kg): 63 fL
- PLT (Day 28, 0.016 mg/Kg): 1727 103/μl
- RBC (Day 28, 0.016 mg/Kg): 7.4 106/μl
- Total protein (Day 28, 0.016 mg/Kg): 6.3 g/dL
- Triglyceride (Day 28, 0.016 mg/Kg): 132 mg/dL
- Urea (Day 28, 0.016 mg/Kg): 54 mg/dL
- WBC (Day 28, 0.016 mg/Kg): 7.8 103/μl
- ALP (Day 28, 0.04 mg/Kg): 243 U/L
- ALT/SGPT (Day 28, 0.04 mg/Kg): 69 U/L
- AST/SGOT (Day 28, 0.04 mg/Kg): 107 U/L
- Cholesterol (Day 28, 0.04 mg/Kg): 165 mg/dL
- Creatine (Day 28, 0.04 mg/Kg): 0.14 mg/dL
- HCT (Day 28, 0.04 mg/Kg): 46.0%
- HDL (Day 28, 0.04 mg/Kg): 108 mg/dL
- HGB (Day 28, 0.04 mg/Kg): 14 g/dL
- LDL (Day 28, 0.04 mg/Kg): 91 mg/dL
- MCHC (Day 28, 0.04 mg/Kg): 30.0 g/dL
- MCV (Day 28, 0.04 mg/Kg): 62.0 fL
- PLT (Day 28, 0.04 mg/Kg): 1687 103/μl
- RBC (Day 28, 0.04 mg/Kg): 7.5 106/μl
- Total protein (Day 28, 0.04 mg/Kg): 5.8 g/dL
- Triglyceride (Day 28, 0.04 mg/Kg): 122 mg/dL
- Urea (Day 28, 0.04 mg/Kg): 52 mg/dL
- WBC (Day 28, 0.04 mg/Kg): 7.5 103/μl
- ALP (Day 28, 0.08 mg/Kg): 189 U/L
- ALT/SGPT (Day 28, 0.08 mg/Kg): 63 U/L
- AST/SGOT (Day 28, 0.08 mg/Kg): 113 U/L
- Cholesterol (Day 28, 0.08 mg/Kg): 194 mg/dL
- Creatine (Day 28, 0.08 mg/Kg): 0.13 mg/dL
- HCT (Day 28, 0.08 mg/Kg): 52.0%
- HDL (Day 28, 0.08 mg/Kg): 106 mg/dL
- HGB (Day 28, 0.08 mg/Kg): 15 g/dL
- LDL (Day 28, 0.08 mg/Kg): 78 mg/dL
- MCHC (Day 28, 0.08 mg/Kg): 29.0 g/dL
- MCV (Day 28, 0.08 mg/Kg): 61.0 fL
- PLT (Day 28, 0.08 mg/Kg): 1362 103/μl
- RBC (Day 28, 0.08 mg/Kg): 8.6 106/μl
- Total protein (Day 28, 0.08 mg/Kg): 6.2 g/dL
- Triglyceride (Day 28, 0.08 mg/Kg): 174 mg/dL
- Urea (Day 28, 0.08 mg/Kg): 79 mg/dL
- WBC (Day 28, 0.08 mg/Kg): 7.1 103/μl

From PMC11025159 (Journal of Translational Medicine, 2024)
